ChEMBL document CHEMBL1201862, “PubChem BioAssay data set” (2004)
Active and inactive are the calls of the source.

Key:
[1] = system: H9c2; assay: cells; type: functional, cell-based; details: Rattus norvegicus, H9c2, Myocardium;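 also: confirmatory concentration-response retest of ultra-high-throughput screening hits for modulation of myocardial damage; cell death induced by hydrogen peroxide oxidative stress; compound pretreatment for 60 min then peroxide exposure for 2 h; potency is for protecting the cells against peroxide damage rather than for killing them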
[2] = inhibitors of intracellular T. cruzi replication, confirmation, NIH3T3 host cells, beta-gal luminescence (AID 2044); type: functional, cell-based;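 also: intracellular parasites grown in NIH/3T3 mouse fibroblasts as host cells; luminescent beta-galactosidase reporter signal from transgenic T. cruzi replicating inside host cells; inhibitors lower the luminescence signal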
[3] = cytotoxicity toward NIH3T3 fibroblasts, dose response, counter-screen, cell-based, ATP luminescence, mouse fibroblasts (AID 2010); type: functional;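 also: cells exposed to compound for about 90 hours before reading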
[4] = target: T1, Ubiquitin-conjugating enzyme E2 N (Homo sapiens, UniProt P61088); type: functional;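 also: Dose-response confirmation in a TR-FRET assay detecting UBC13-driven polyubiquitin chain formation, inhibition measured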
T1 sequence (P61088 whole entry): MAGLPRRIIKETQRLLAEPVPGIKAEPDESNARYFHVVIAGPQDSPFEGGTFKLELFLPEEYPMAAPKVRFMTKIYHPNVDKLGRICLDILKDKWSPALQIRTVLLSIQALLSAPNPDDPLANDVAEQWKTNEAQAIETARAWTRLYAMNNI

[5] = THP-1 cell cytotoxicity, dose response, cytotoxicity control for non-replicating M. tuberculosis project (AID 489025); type: functional
[6] = Vero E6 cell cytotoxicity, dose response, cytotoxicity control for non-replicating M. tuberculosis project, secondary assay (AID 492998); type: functional, VeroE6; details: Vero C1008
[7] = cells; type: functional
[8] = target: Heat shock protein HSP 90-alpha (Homo sapiens, UniProt P07900); type: functional, organism-based
[9] = target: FAD-linked sulfhydryl oxidase ALR (Homo sapiens, UniProt P55789); assay: inhibitors of human ALR sulfhydryl oxidase, dose response, biochemical, H2O2 detection, luminescence, cherry-pick (AID 493248)
[10] = target: T2, Corticotropin-releasing factor receptor 2/Corticotropin-releasing factor-binding protein (Homo sapiens, UniProt P24387+Q13324); assay: Dose Response confirmation of uHTS hits for small molecule antagonists of the CRF-binding protein and CRF-R2 receptor complex.; type: functional; details: read-out: IC50_Mean
T2 sequence (Q13324 whole entry): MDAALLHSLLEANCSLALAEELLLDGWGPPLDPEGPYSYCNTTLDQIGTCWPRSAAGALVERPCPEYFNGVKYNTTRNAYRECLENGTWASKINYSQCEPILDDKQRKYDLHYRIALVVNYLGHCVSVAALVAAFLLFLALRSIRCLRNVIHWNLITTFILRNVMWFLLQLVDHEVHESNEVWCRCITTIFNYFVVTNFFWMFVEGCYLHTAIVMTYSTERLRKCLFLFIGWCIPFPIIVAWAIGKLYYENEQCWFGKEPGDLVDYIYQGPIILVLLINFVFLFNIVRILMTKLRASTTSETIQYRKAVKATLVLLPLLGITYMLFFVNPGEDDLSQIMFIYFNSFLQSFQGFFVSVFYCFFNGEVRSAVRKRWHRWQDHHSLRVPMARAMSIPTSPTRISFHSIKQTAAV
T2 sequence (P24387 whole entry): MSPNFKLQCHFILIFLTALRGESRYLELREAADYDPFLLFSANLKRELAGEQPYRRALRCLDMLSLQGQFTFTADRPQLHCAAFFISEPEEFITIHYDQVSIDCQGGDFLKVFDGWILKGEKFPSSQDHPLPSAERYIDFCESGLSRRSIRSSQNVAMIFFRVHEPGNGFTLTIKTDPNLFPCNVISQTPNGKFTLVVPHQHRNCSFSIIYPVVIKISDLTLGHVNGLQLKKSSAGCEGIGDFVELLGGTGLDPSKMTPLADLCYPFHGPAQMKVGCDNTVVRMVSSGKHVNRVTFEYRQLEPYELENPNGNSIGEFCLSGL

[11] = target: T2, Corticotropin-releasing factor receptor 2/Corticotropin-releasing factor-binding protein; assay: activators of CRF receptor 2 with binding protein – uHTS hits, confirmation (AID 602473); type: functional; details: read-out: EC50_Mean
[12] = cells; type: functional, cell-based
[13] = cells; type: functional, cell-based; remark: listed apart in the source
[14] = inhibitors of firefly luciferase expression or activity, dose response, H4 neuroglioma cells, luminescence (AID 1990); type: functional, cell-based
[15] = system: Streptococcus sp. 'group A'; assay: growth inhibition of control SK(-) GAS strain, dose response, counter-screen for streptokinase expression inhibitor project, luminescence, kanamycin, BacTiterGlo, confirmation (AID 1900); type: functional, organism-based
[16] = Luminescence Cell-Based Dose Response HTS to Identify Inhibitors of 5'UTR Stem-Loop Driven Prion Protein mRNA Translation in H4 Neuroglioblastoma Cells. [Related pubchem assays: 1827 (Project Summary), 1813 (Primary HTS)]; type: functional
[17] = inhibitors of SNCA 5'UTR-driven reporter translation, confirmation, H4 neuroglioma cells, luminescence (AID 1988); type: functional, cell-based
[18] = target: T3, Streptokinase A (Streptococcus pyogenes serotype M1, UniProt P10520); assay: S. pyogenes streptokinase expression inhibitors, potency, dose response, plasminogen activation absorbance, OD405 (AID 1914); type: functional, Streptococcus pyogenes M1 GAS;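 also: secreted streptokinase activity via plasminogen activation per viability signal from cell pellet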
T3 sequence (P10520 whole entry): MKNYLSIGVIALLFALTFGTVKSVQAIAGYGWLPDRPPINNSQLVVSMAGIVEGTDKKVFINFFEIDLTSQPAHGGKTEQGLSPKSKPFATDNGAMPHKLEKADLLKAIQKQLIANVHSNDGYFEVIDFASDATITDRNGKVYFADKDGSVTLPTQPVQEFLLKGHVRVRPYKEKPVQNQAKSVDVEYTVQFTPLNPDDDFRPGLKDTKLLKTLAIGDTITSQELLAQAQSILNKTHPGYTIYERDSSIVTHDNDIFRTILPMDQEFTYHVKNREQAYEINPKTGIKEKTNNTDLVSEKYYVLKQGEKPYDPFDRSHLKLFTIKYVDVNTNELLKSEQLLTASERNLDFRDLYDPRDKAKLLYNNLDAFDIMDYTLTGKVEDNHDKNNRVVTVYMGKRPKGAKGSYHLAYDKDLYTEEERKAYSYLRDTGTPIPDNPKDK

[19] = system: Streptococcus; assay: Group A Streptococcus viability loss, dose response, counter-screen for streptokinase expression inhibitor project, luminescence, BacTiterGlo (AID 1915); type: functional, organism-based;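 also: potency for reduction of bacterial viability or growth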
[20] = target: T4, Heat shock factor protein 1 (Mus musculus, UniProt P38532); assay: HSF1 potentiators in luciferase reporter cells, confirmation, cell-based, NIH3T3, luminescence, dose retest (AID 435004); type: functional;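 also: stress induced by proteasome inhibitor MG132 added 30 min after compound; luciferase reporter driven by HSF1 response element in NIH3T3 cells; actives raise luminescence as potentiators of the MG132 stress response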
T4 sequence (P38532 whole entry): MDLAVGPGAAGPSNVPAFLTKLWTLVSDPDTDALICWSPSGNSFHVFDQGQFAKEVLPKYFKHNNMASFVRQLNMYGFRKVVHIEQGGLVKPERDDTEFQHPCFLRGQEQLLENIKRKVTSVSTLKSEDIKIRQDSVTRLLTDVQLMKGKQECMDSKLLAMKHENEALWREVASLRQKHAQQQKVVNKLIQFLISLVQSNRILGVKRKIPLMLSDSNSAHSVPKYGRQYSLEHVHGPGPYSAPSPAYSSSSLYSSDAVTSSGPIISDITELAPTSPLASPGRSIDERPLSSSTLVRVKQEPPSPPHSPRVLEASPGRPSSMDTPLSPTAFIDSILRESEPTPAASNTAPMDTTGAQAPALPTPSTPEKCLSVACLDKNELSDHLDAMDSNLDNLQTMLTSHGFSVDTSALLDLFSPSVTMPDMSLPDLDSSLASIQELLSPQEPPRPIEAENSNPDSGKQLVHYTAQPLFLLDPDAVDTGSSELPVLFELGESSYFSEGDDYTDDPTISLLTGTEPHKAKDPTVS

[21] = NIH-3T3 fibroblast cytotoxicity, dose response, cytotoxicity control, cell-based, fluorescence, Alamar Blue, secondary assay (AID 2327); type: functional;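 also: NIH-3T3 mouse fibroblasts cultured with fluconazole at 8 µg/mL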
[22] = C. albicans growth with fluconazole, confirmation, fluorescence, retest (AID 2467); type: functional, cell-based

FAD-linked sulfhydryl oxidase ALR, sequence (P55789 whole entry): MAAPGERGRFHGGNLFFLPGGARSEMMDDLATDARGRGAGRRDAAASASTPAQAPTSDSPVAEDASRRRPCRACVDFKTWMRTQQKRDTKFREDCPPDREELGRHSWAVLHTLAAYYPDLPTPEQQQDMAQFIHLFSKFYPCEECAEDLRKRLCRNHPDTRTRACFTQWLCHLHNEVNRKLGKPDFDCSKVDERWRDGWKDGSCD

## O=C(CSc1nnc(-c2cccnc2)o1)c1cc2ccccc2oc1=O
[1]
  IC50: > 79 µM (inactive)

## O=C(O)c1nn(CCOc2ccccc2F)c(=O)c2ccccc12
[1]
  IC50: > 79 µM (inactive)

## COc1ccc2sc(N(CCCN(C)C)C(=O)c3ccc(S(=O)(=O)N(C)Cc4ccccc4)cc3)nc2c1
[2]
  EC50: 185 nM (active)
[3]
  EC50: > 60 µM (not active)
[4]
  IC50: > 20 µM (inactive)

## CCCN1Cc2cccc(C(N)=O)c2C1=O
[1]
  IC50: > 79 µM (inactive)

## CN(C)CCNc1ccc(-c2nnc(O)c3ccccc23)cc1[N+](=O)[O-]
[1]
  IC50: > 79 µM (inactive)

## COc1ccc(C(CCN2CCCC(C)C2)c2c(OC)cc(OC)c3c(-c4ccccc4)cc(=O)oc23)cc1 (stereo unspecified)
[4]
  IC50: > 20 µM (inactive)

## O=C(NC1CCCCC1)c1nc(O)c2nnn(Cc3ccccc3Cl)c2n1
[5]
  CC50: > 40 µM (active)
[6]
  CC50: 19.9 µM (active)
[7]
  IC50: 29.9 µM (active)

## O=C(NC(O)C(=O)c1cccs1)c1cccnc1 (stereo unspecified)
[1]
  IC50: > 79 µM (inactive)

## O=C1NC(=O)N(Cc2ccccc2Cl)C(=O)/C1=C/c1ccc[nH]1
[5]
  CC50: 9.35 µM (active)
[6]
  CC50: 9.48 µM (active)
[7]
  IC50: 1.04 µM (active)

## O=S(=O)(NC1CC2CCC1C2)c1ccc(Br)cc1 (stereo unspecified)
[8]
  AC50: 1.6 µM (active)

## O=C(Cn1[nH]c(=O)c2ccccc2c1=O)OCC(=O)N(Cc1ccccc1)Cc1ccccc1
[1]
  IC50: 36 µM (inactive)

## CCn1c(S)nnc1CCn1c2ccccc2c2ccccc21
[9]
  AC50: > 100 µM (inactive)

## COc1cccc(CNc2nc(-c3cccnc3)nc3ccccc23)c1
[4]
  IC50: > 20 µM (inactive)
[10]
  IC50: > 47.1 µM (inactive)
[11]
  EC50: > 53 µM (inactive)

## Cc1cc(NC(=O)CCN2C(=O)/C(=C\c3ccccc3)SC2=S)no1
[12]
  EC50: > 350 µM (not active)
[13]
  EC50: > 350 µM (not active)

## Cc1ccc(NC2CCCN(C(=O)CCc3ccncc3)C2)cc1C (stereo unspecified)
[2]
  EC50: 1150 nM (active)
[3]
  EC50: > 60 µM (not active)
[9]
  AC50: 2.7 µM (active)

## CCOC(=O)c1cc2c(ccn2C)n1CC(=O)N1CCN(c2ccccc2)CC1
[12]
  EC50: > 350 µM (not active)
[13]
  EC50: > 350 µM (not active)

## COc1cccc(N2CCN(CC(=O)NCc3ccccc3)CC2)c1
[9]
  AC50: 1.97 µM (active)

## Cc1occc1-c1nnc(-c2cc([N+](=O)[O-])cc([N+](=O)[O-])c2)o1
[2]
  EC50: 277 nM (active)
[3]
  EC50: > 60 µM (not active)
[7]
  IC50: 1.37 µM (active)
[8]
  AC50: 2.74 µM (active)

## CC(C)N1CCc2c(sc(NC(=O)c3ccc(S(=O)(=O)N4CCc5ccccc54)cc3)c2C(N)=O)C1
[4]
  IC50: > 20 µM (inactive)

## O=C(NCCCN1CCOCC1)c1cc(-c2cccs2)on1
[12]
  EC50: 77 µM (active)
[13]
  EC50: > 350 µM (not active)

## COc1cc(OC)c(-c2nn3c(-c4ccco4)nnc3s2)cc1OC
[1]
  IC50: > 79 µM (inactive)

## CCN(CC)c1ccc(CNCc2cccs2)cc1
[9]
  AC50: 0.742 µM (active)

## O=C(COc1ccc([N+](=O)[O-])cc1)Nc1nc(-c2ccccn2)cs1
[14]
  EC50: > 120 µM (not active)
[15]
  EC50: 5.56 µM (active)
[16]
  EC50: 11.8 µM (active)
[17]
  EC50: > 120 µM (not active)
[18]
  EC50: > 150 µM (not active)
[2]
  EC50: 1790 nM (active)
[3]
  EC50: 8.46 µM (active)
[19]
  EC50: 13.8 µM (active)
[1]
  IC50: 11.8 µM (active)

## C=C(C)Cn1c(CCNC(=O)C(C)C)nc2ccccc21
[12]
  EC50: > 350 µM (not active)
[13]
  EC50: > 350 µM (not active)

## CCCCc1c(C)nc(N)nc1O
[12]
  EC50: > 350 µM (not active)
[13]
  EC50: > 350 µM (not active)

## C[C@H](CO)N1C[C@H](C)[C@@H](CN(C)S(=O)(=O)c2ccccc2)Oc2ccc(NC(=O)Nc3ccccc3)cc2C1=O
[1]
  IC50: 13.3 µM (active)

## O=C1N[C@H]2CC=C[C@H]2Nc2ccccc21
[1]
  IC50: 44.8 µM (inactive)

## CNCC(O)c1cc(F)c(OCc2ccccc2)c(OCc2ccccc2)c1F (stereo unspecified)
[4]
  IC50: > 20 µM (inactive)

## O=C1OC(c2ccccc2)(c2ccc3cc(O)ccc3c2)c2ccccc21 (stereo unspecified)
[8]
  AC50: 8.23 µM (active)

## CSc1ccccc1OCc1cc(C(=O)N2CCN(C)C(c3ccccc3)C2)no1 (stereo unspecified)
[8]
  AC50: 1.64 µM (active)

## COc1ccc(N2C(=O)CSC2c2ccncc2)cc1 (stereo unspecified)
[20]
  EC50: > 260 µM (inactive)
[9]
  AC50: 0.124 µM (active)

## CC(=O)Nc1cccc(-c2cc(NC(C)=O)c3ncc(-c4ccccc4)n3c2)c1
[1]
  IC50: > 79 µM (inactive)

## COc1cc(-c2cc(NC(C)=O)c3ncc(-c4ccc(C(C)=O)cc4)n3c2)cc(OC)c1OC
[1]
  IC50: > 79 µM (inactive)

## O=C(NCN1CCN(c2ccccc2)CC1)c1cnccn1
[9]
  AC50: 4.03 µM (active)

## O=C(N/N=C\c1cccc(Cl)c1)c1ccc(Cn2cccn2)o1
[9]
  AC50: 0.641 µM (active)

## C/C(CC(=O)Nc1cc(C)ccn1)=N\NC(=O)c1cccc(C)c1O
[21]
  EC50: > 160 µM (inactive)
[22]
  EC50: > 38 µM (not active)
[8]
  AC50: 49.5 µM (active)

## O=C(CCN1CCN(c2ccccc2)CC1)N/N=C/c1ccccc1O
[12]
  EC50: 91.8 µM (active)
[13]
  EC50: > 350 µM (not active)

## C/C(=N\NC(=O)c1ccncc1)c1ccc(N(C)C)cc1
[9]
  AC50: 5.01 µM (active)

## c1ccc(Nc2nc(-c3ccccn3)cs2)cc1
[6]
  CC50: > 20 µM (active)
[7]
  IC50: 0.19 µM (active)

## CC1Oc2cc3oc4c(O)c(O)ccc4c(=O)c3c(O)c2C1(C)C (stereo unspecified) [TOXYLOXANTHONE C]
[21]
  EC50: > 150 µM (inactive)
[15]
  EC50: 5.91 µM (active)
[18]
  EC50: > 150 µM (not active)
[22]
  EC50: > 38 µM (not active)
[19]
  EC50: 8.07 µM (active)
[8]
  AC50: 38 µM (active)
